Results as given in patent US9562031B1, “Phenethyldihydrobenzodioxolones and methods of use” (Sequoia Sciences, Inc., priority 2015, dated 2017).

What was measured:
OVCAR-3 cells = test: antiproliferation assay, OVCAR-3; assay type: cell-based; details: Homo sapiens
Experimental: (§1) For the antiproliferation assay, NCI-H460 (large cell lung carcinoma) or M14 (amelanotic melanoma) cells were grown in RPMI-1640 with 10% FBS supplemented with L-glutamine and HEPES. Cells were seeded into 96-well plates at 5×10^2 to 5×10^4 cells/well and allowed to adhere overnight; the medium was then removed. A stock solution of test compound in DMSO was diluted in medium to generate a series of working solutions. Aliquots (100 μl) of the working solutions were then added to the appropriate test wells to expose cells to the final concentrations of compound in a total volume of 100 μl. Seven different concentrations were tested, with 2-5 wells per concentration. Camptothecin was used as a positive control; wells containing vehicle without compound were used as negative controls. Plates were kept for 72 h in a 37° C., 5% CO2 incubator. After incubation, viable cells were detected with the CELLTITER 96 AQueous Non-Radioactive Cell Proliferation Assay (Promega), and IC50 values were determined using GraphPad Prism 5 software.
(§2) Antiproliferation of several of the active compounds was tested against additional cell lines.

[1] = compound concentrations in mouse plasma after IP injection (LC/MS); assay type: in vivo; details: mice, IP 40 mg/kg, 3-5 h after injection; vehicle 42.97% propylene glycol, 0.23% TWEEN-20, 31.5% PEG400, 15.3% ethanol, 10% water
Experimental: The bioavailabilities of certain compounds were examined in mice. Administration of the compounds was performed by intraperitoneal (IP) injection using a vehicle as known to those skilled in the art. To measure compound concentrations in plasma, blood is collected by cardiac puncture at a specified time after […]. It is then centrifuged in a plasma separator tube with NaEDTA/NaF as the anticoagulant, and the resulting plasma is stored at −80° C. For analysis, an internal standard is added to a 200 μL aliquot of plasma, and the aliquot is extracted with ethyl acetate. The ethyl acetate extract is analyzed by LC/MS and quantitated using a standard curve prepared by adding known amounts of test compound and internal standard to 200 μL aliquots of blank mouse plasma.
Many vehicles can be used to examine bioavailability. […]
Plasma concentrations were measured for several additional compounds. Table 12 lists plasma concentrations (as a multiple of the compound's IC50 against NCI-H460 cells) measured for these compounds at different time points after injection, along with the vehicle used.

MES-SA/Dx5 cells = test: antiproliferation assay, MES-SA/Dx5; assay type: cell-based; details: Homo sapiens
Experimental: as §1, §2
Compound 4 was tested for antiproliferation activity against several paclitaxel-resistant human cancer cell lines.

MCF-7 cells = test: NCI-60 panel antiproliferation, MCF-7; assay type: cell-based, human; details: Homo sapiens, MCF7, NCI 60-cell panel
Experimental: (§3) Bifidenone and Compound 37 were tested for antiproliferation activity against the NCI-60 panel of cancer cell lines. COMPARE analysis was then conducted to compare the activity “fingerprint” of bifidenone to those of known classes of compounds (Zhou, B.-N., Hoch, J. M., Johnson, R. K., Mattern, M. R., Eng, W.-K., Ma, J., Hecht, S. M., Newman, D. J., Kingston, D. G. I., 2000. Use of COMPARE Analysis to Discover New Natural Product Drugs: Isolation of Camptothecin and 9-Methoxycamptothecin from a New Source. Journal of Natural Products 63, 1273-1276.).

MDA-MB-231 cells = test: NCI-60 panel antiproliferation, MDA-MB-231; assay type: cell-based, human; details: Homo sapiens, NCI 60-cell panel
Experimental: as §3

M14 cells = test: NCI-60 panel antiproliferation, M14; assay type: cell-based, human; details: Homo sapiens, NCI 60-cell panel
Experimental: as §3

Structure (SMILES) | IC50 (OVCAR-3 cells) [nM] | plasma concentration relative to IC50 against NCI-H460 [1] | IC50 (MES-SA/Dx5 cells; MES-SA/Dx5, MES-SA/Dx5) [nM] | IC50 (MES-SA/Dx5 cells; MES-SA/Dx5, paclitaxel-resistant MES-SA/Dx5) [nM] | IC50 (MCF-7 cells) [nM] | IC50 (MDA-MB-231 cells) [nM] | IC50 (M14 cells) [nM]
C=CC[C@H]1C[C@]2([C@H](C)Cc3cc(O)c(OC)cc3F)OCOC2=CC1=O (relative stereo) [Compound 4, 6-allyl-7a-(1-(2-fluoro-5-hydroxy-4-methoxyphenyl)propan-2-yl)-7,7a-dihydrobenzo[d][1,3]dioxol-5(6H)-one] | 12 | below its IC50 | 13 | 14 | – | – | –
C=CC[C@H]1C[C@]2([C@@H](C)Cc3ccc(OC)c(F)c3)OCOC2=CC1=O [Compound 37, (6S,7aR)-6-allyl-7a-((S)-1-(3-fluoro-4-methoxyphenyl)propan-2-yl)-7,7a-dihydrobenzo[d][1,3]dioxol-5(6H)-one] | – | – | – | – | 63 | 837 | 59
